From patent publication US20040162247A1, “Therapeutic agent or osteoporosis comprising an active ingredient of quercetin derivatives” (priority 2000, published 2004)
Several values for one entry are separate records, joined by “and”; a condition that tells them apart may be missing. Equal entries are not always repeated.

Assays:
[1] = rat, in vivo
Experimental: Female SD (Sprague-Dawley) rats, a model animal for type I osteoporosis occurring after menopause were employed for evaluating pharmacological effectiveness of quercetin. Female rats (10 weeks old) weighing 200 to 300 g, obtained from the Korea Research Institute of Chemical Technology were employed as experimental animals. Experiment was carried out by the procedure which comprises removing ovary, administration of agents to the each group of rats, and at certain days after ovariectomy, the rats were sacrificed and subjected to analyses including measurement of body weight, examination of internal organs, measurement of trabecular bone area, complete blood count, and biochemical analyses of plasma.
The Sham group, animals operated upon for the surgery as in the ovariectomized rats except for removing ovary, were employed to compare the changes caused solely by ovariectomy in control group which were ovariectomized but no agent was administered. Control group was employed to compare the changes caused by administration of agents in test group which were ovariectomized and administered with testing agents.
During the period of administration, blood was sampled once a week. After 9-week administration, entire blood was withdrawn with heparin treatment. Following complete blood count (CBC), the blood was centrifuged at 3,000 rpm for 20 minutes to obtain plasma which was stored at −70° C. until use. For measurement of bone mineral density, the lumbar spine L5 and L6, and right tibia were removed and stored separately in 4% (v/v) formalin solution.

ovariectomized rats [2] = assay: Trabecular bone area of lumbars in ovariectomized rats;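 on Change Rate (%) of TBA of lumbars, of control group: control group rats were ovariectomized and are not the sham group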; type: in vivo, Female SD (Sprague-Dawley) rats; details: OVX rats, 9 weeks i.p. (E2 1 μg/kg/day; quercetin, genistein 10 mg/kg/day)
Experimental: (§1) Trabecular bone area (TBA) of lumbar and tibia removed from the rats of each group which was treated with various agents for 9 weeks were measured as follows: that is, using a digitalizer of quantitative image analysis system (Wild Leitz Co.), image of each trabecula was obtained on computer monitor by drawing a contour of the trabecula, and then, using a computer, calculated were average areas of trabeculae within a rectangle of 2×10^6 μm^2 area wherein the width is about ⅔ of the length of growth plate which located underneath of growth plate at proximity of tibia. Also, following the number of trabeculae within the rectangle were obtained, average area was multiplied by the number of trabeculae to obtain trabecular bone area of each sample bone, which was analyzed statistically (see: Table 5).
TBAs of lumbars removed from the animal treated with test agents for 9 weeks were measured employing the same method above (see: Table 6).

ovariectomized rats [3] = assay: Complete blood count in ovariectomized rats; type: in vivo, Female SD (Sprague-Dawley) rats; details: rat, in vivo
Experimental: (§2) When test agents were administered, for a certain period of time before and after administration, 1.5 ml of blood was sampled from tail vein using a catheter (B.D Co.: 24 G) and subjected to complete blood count (Coulter Co.: JT) and biochemical analyses of plasma (Crone Co.: Airon® 200). During autopsy, blood was sampled from caudal venae cavae and subjected to the analyses above. And then, each sample was frozen to store for measurement of trabecular bone area of femur and examination of internal organs.
Complete blood count which reflects the condition and abnormality of the body was measured to find out abnormality in test animals caused by administrtion of agents. That is, to find out changes in hematopoiesis of test rats, measured were red blood cell (RBC) count, concentration of hemoglobin (Hb) and hematocrit (Ht) of-blood samples obtained from the rats prior to operation and the rats 10 weeks after administrating agents following operation, and to find out changes in immune system such as inflammation and necrosis of tissues, measured were white blood cell count, lymphocyte count, monocyte count, and granulocyte count (see: Table 7).

ovariectomized rats [4] = assay: Trabecular bone area of tibia in ovariectomized rats;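 on Change Rate (%) of TBA of tibia, of control group: control group rats were ovariectomized and are not the sham group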; type: in vivo, Female SD (Sprague-Dawley) rats; details: OVX rats, 9 weeks i.p. (E2 1 μg/kg/day; quercetin, genistein 10 mg/kg/day)
Experimental: as §1

ovariectomized rats [5] = assay: Biochemical parameters in plasma of ovariectomized rats; type: in vivo, Female SD (Sprague-Dawley) rats; details: rat, in vivo
Experimental: as §2
Since blood reflects the condition of body, safety of quercetin in the body was evaluated by measuring biochemical parameters: that is, blood samples were obtained from the rat prior to operation, one week after operation, and 10 weeks after operation, and measured were levels of alkaline phosphatase (ALP), calcium, inorganic phosphate, blood urea nitrogen (BUN), creatinin, total cholesterol, HDL-cholesterol and LDL-cholesterol (see: Table 8).

Weight [1]: 228.51 ± 8.11 g | Concentration of hemoglobin(Hb) (ovariectomized rats [3]): 15.86 ± 0.24 g/dL | Hematocrit(Ht) (ovariectomized rats [3]): 43.11 ± 0.55% | Lymphocyte and granulocyte count, before versus after operation (in words) (ovariectomized rats [3]): rapid decrease | Lymphocyte count (ovariectomized rats [3]): 17.80 ± 1.72 ×10^3 cells/μl | Red blood cell(RBC) count (ovariectomized rats [3]): 7.33 ± 0.13 ×10^6 cells/μl | White blood cell count (ovariectomized rats [3]): 23.14 ± 1.50 ×10^3 cells/μl | White blood cell count, before versus after operation (in words) (ovariectomized rats [3]): decreased | Concentration of ALP in plasma (ovariectomized rats [5]): 196.01 ± 28.34 U/dL | Concentration of HDL-cholesterol in plasma (ovariectomized rats [5]): 52.30 ± 2.01 mg/dL | Concentration of LDL-cholesterol in plasma (ovariectomized rats [5]): 24.49 ± 1.63 mg/dL | Concentration of blood urea nitrogen (BUN) (ovariectomized rats [5]): 18.36 ± 1.01 mg/dL | Concentration of calcium in plasma (ovariectomized rats [5]): 10.86 ± 0.40 mg/dL | Concentration of creatinin in plasma (ovariectomized rats [5]): 0.55 ± 0.05 mg/dL | Concentration of inorganic phosphate in plasma (ovariectomized rats [5]): 6.90 ± 0.52 mg/dL | Concentration of total cholesterol in plasma (ovariectomized rats [5]): 76.79 ± 2.80 mg/dL
SMILES: C[C@]12CC[C@@H]3c4ccc(O)cc4CC[C@H]3[C@@H]1CC[C@@H]2O [E2, 17β-estradiol]
TBA (trabecular bone area) of lumbars (ovariectomized rats [2]): 89.16 ± 2.83 ×10^4 μm^2 | Change Rate (%) of TBA of lumbars, of control group (ovariectomized rats [2]; control group = 100): 132% and 132.04 ± 4.19 % | TBA (trabecular bone area) of tibia (ovariectomized rats [4]): 51.40 ± 2.28 ×10^4 μm^2 | Change Rate (%) of TBA of tibia, of control group (ovariectomized rats [4]; control group = 100): 148% and 148.46 ± 6.59%
